Assay results as given in ChEMBL document CHEMBL1147271, “New cytotoxic metabolites from a marine sponge Homaxinella sp” (2004).
≈ marks a conversion by molar mass, not a printed value.

Columns and labels:
Type in all cases: functional
Settings in all cases: read-out: ED50 (the source's name)
A549 = experiment: Cytotoxicity against human A549 cells
SK-OV-3 = experiment: Cytotoxicity against human SKOV3 cells
SK-MEL-2 = experiment: Cytotoxicity against human SK-MEL-2 cells
XF498 = experiment: Cytotoxicity against human XF498 cells
HCT-15 = experiment: Cytotoxicity against human HCT15 cells

SMILES | EC50 (A549) [µg/mL] | EC50 (SK-OV-3) [µg/mL] | EC50 (SK-MEL-2) [µg/mL] | EC50 (XF498) [µg/mL] | EC50 (HCT-15) [µg/mL]
CCCCC/C=C\C/C=C\C/C=C\C[C@@]1(O)C=CC(=O)C1 | 5.4 (≈ 18.7 µM) | 4.4 (≈ 15.3 µM) | 2.6 (≈ 9.01 µM) | 4.9 (≈ 17 µM) | 2.9 (≈ 10.1 µM)
CCCCC/C=C\C/C=C\C/C=C\C[C@@]1(OC)C=CC(=O)O1 [HOMAXINOLIDE A] | 10.1 (≈ 33.2 µM) | 16.1 (≈ 52.9 µM) | 2.7 (≈ 8.87 µM) | 9.9 (≈ 32.5 µM) | 8.9 (≈ 29.2 µM)
CC/C=C/C/C=C\C/C=C\C/C=C\C[C@@]1(OC)C=CC(=O)O1 [HOMAXINOLIDE C] | > 30 | > 30 | 14.9 (≈ 49.3 µM) | > 30 | 34.8 (≈ 115 µM)
COc1cccc2c1C(=O)c1c(O)c3c(c(O)c1C2=O)C[C@@](O)(C(=O)CO)C[C@@H]3O[C@H]1C[C@H](N)[C@H](O)[C@H](C)O1 [DOXORUBICIN] | 0.07 (≈ 0.129 µM) | 0.24 (≈ 0.442 µM) | 0.12 (≈ 0.221 µM) | 0.12 (≈ 0.221 µM) | 0.17 (≈ 0.313 µM)
CC/C=C\C/C=C\C/C=C\C/C=C\C[C@]1(OC)C=CC(=O)O1 [HOMAXINOLIDE B] | 32.1 (≈ 106 µM) | > 30 | 4.5 (≈ 14.9 µM) | > 30 | 17.5 (≈ 57.9 µM)
CCCCC/C=C\C/C=C\C/C=C\CO | > 30 | 19.8 (≈ 95 µM) | 74.1 (≈ 356 µM) | 30 (≈ 144 µM) | 25.5 (≈ 122 µM)
